# Reference: US20150105252A1, “SUBSTITUTED PYRAZOLES AS HERBICIDES” (E I DU PONT DE NEMOURS AND COMPANY, priority 2013, published 2015)
# Tested on: Russian thistle
# Assay: Test C preemergence
# Assay type: in vivo, Salsola kali
# Conditions: for Plant response rating (scale of 0 to 100), Russian Thistle: Preemergence, 250 g ai/ha; for Russian Thistle plant response rating / Plant response rating, Russian Thistle: preemergence; for Plant response rating, Russian Thistle: 62 g ai/ha, scale 0 to 100, 0 = no effect, 100 = complete control
# Source text: Seeds of plant species selected from blackgrass (Alopecurus myosuroides), ryegrass, Italian (Italian ryegrass, Lolium multiflorum), wheat (winter wheat, Triticum aestivum), galium (catchweed bedstraw, Galium aparine), corn (Zea mays), crabgrass, large (large crabgrass, Digitaria sanguinalis), foxtail, giant (giant foxtail, Setaria faberii), johnsongrass (Sorghum halepense), lambsquarters (Chenopodium album), morningglory (Ipomoea coccinea), nutsedge, yellow (yellow nutsedge, Cyperus esculentus), pigweed (redroot pigweed, Amaranthus retroflexus), ragweed (common ragweed, Ambrosia elation), soybean (Glycine max), barnyardgrass (Echinochloa crus-galli), oilseed rape (Brassica napus), waterhemp (common waterhemp, Amaranthus rudis), oat, wild (wild oat, Avena fatua), kochia (Kochia scoparia), Surinam grass (Brachiaria decumbens), foxtail, green (green foxtail, Setaria viridis), goosegrass (Eleusine indica), bromegrass, downy (downy bromegrass, Bromus tectorum), nightshade (eastern black nightshade, Solanum ptycanthum), cocklebur (common cocklebur, Xanthium strumarium), cupgrass, woolly (woolly cupgrass, Eriochloa villosa), bermudagrass (Cynodon dactylon), sunflower, (common oilseed sunflower, Helianthus annuus), Russian thistle (Salsola kali), and velvetleaf (Abutilon theophrasti) were planted into a blend of loam soil and sand and treated preemergence with test chemicals formulated in a non-phytotoxic solvent mixture which included a surfactant.
# At the same time, plants selected from these crop and weed species and also chickweed (common chickweed, Stellaria media), canarygrass (littleseed canarygrass, Phalaris minor), and deadnettle (henbit deadnettle, Lamium amplexicaule), were planted in pots containing Redi-Earth® planting medium (Scotts Company, 14111 Scottslawn Road, Marysville, Ohio 43041) comprising spaghnum peat moss, vermiculite, wetting agent and starter nutrients and treated with postemergence applications of test chemicals formulated in the same manner. Plants ranged in height from 2 to 18 cm (1- to 4-leaf stage) for postemergence treatments. Treated plants and controls were maintained in a greenhouse for 13 to 15 days, after which time all species were compared to controls and visually evaluated. Plant response ratings, summarized in Table C, are based on a scale of 0 to 100 where 0 is no effect and 100 is complete control. A dash (-) response means no test result.
# [1] = 31 g ai/ha, scale 0 to 100 (0 no effect, 100 complete control), 13 to 15 days
# [2] = 125 g ai/ha, scale 0 to 100, 0 is no effect, 100 is complete control
SMILES,"Plant response rating (scale of 0 to 100), Russian Thistle",Russian Thistle plant response rating [1],"Plant response rating, Russian Thistle (13 to 15 days)",Russian Thistle plant response rating [2]
CCc1cc(C(=O)NOC(C)C)nn1Cc1cccc(OC(F)(F)F)c1 [Compound 70],80,65,75,75
CCONC(=O)c1cc(CC)n(Cc2cccc(OC(F)(F)F)c2)n1 [Compound 72],95,5,90,95
